How the values were obtained:
[1] = tested on: PrP^Sc
[2] = target: PrP^Sc (Mus musculus, UniProt P04925)
[3] = target: mouse PrP^Sc (Mus musculus, UniProt P04925)
[4] = target: bovine PrP^Sc (Bos taurus, UniProt P10279)
[5] = target: PrP^C (Mesocricetus auratus, UniProt P04273)
Chain of PrP^C (P04273 23-231 limits assumed): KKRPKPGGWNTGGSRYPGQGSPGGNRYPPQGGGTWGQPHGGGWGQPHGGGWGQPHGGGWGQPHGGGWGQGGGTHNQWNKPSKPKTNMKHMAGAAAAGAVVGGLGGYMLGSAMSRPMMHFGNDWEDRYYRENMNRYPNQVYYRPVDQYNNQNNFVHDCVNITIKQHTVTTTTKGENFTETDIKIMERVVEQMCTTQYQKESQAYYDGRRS

Chain of PrP^Sc (Mus musculus, UniProt P04925) (P04925 23-230 limits assumed): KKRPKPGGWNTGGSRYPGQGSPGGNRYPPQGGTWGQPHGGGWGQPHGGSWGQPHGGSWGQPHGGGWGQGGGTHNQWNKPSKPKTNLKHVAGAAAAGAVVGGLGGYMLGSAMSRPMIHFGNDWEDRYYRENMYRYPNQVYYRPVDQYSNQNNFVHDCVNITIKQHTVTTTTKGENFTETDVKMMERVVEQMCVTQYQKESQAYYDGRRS
Chain of mouse PrP^Sc (P04925 23-230 limits assumed): as above
Chain of bovine PrP^Sc (P10279 25-241 limits assumed): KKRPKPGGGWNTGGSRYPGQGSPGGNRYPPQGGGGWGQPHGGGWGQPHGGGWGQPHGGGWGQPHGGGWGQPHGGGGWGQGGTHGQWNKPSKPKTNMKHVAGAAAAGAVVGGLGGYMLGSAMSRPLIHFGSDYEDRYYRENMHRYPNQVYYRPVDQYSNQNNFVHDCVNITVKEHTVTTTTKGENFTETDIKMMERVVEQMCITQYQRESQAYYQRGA

Sequence	PrP^Sc selective binding / capture [1]	precipitation of PrP^Sc from scrapie mouse brain lysate [2]	competition with YYRRYYRYY beads for capture of mouse PrP^Sc [3]	other results
DEAYYKGWFAY	negative for PrP^Sc selective capture			
NHSTHNTGH	negative for PrP^Sc selective capture			
AYRRYARYA		not with YAR or AYR repeats		
YSAASYASY		precipitation of PrP^Sc was observed	compete	
DRYYWYFDV	negative for PrP^Sc selective capture			
YYAAYYAYY		precipitation of PrP^Sc was observed	compete	
YARRAYRAY		not with YAR or AYR repeats	failed to compete	capture of PrP^Sc from BSE-positive bovine brain lysate [4]: failed to capture PrP^Sc
YRAARYRAY	shown to selectively bind PrP^Sc			
YARYARYAR	shown to selectively bind PrP^Sc			
YYRRYYRYY		precipitation of PrP^Sc was observed		precipitation of normal isoform PrP^C from normal hamster brain lysate [5]: not the normal isoform; capture of PrP^Sc from BSE-positive bovine brain lysate [4]: captures PrP^Sc

Reference: patent publication US7435540B2 (IDEXX Corporation, priority 2002, dated 2008)
